Laboratory results published in PubChem BioAssay AID2060499 (Molecular Pharmacology Branch, DTP, NCI, 2025).

Test system: 777334-354-R2-J4-PDC tumor spheroids with HUVEC/MSC, viability
Test: Anticancer human tumor 777334-354-R2-J4-PDC patient-derived pancreatic adenocarcinoma cell line growth inhibition [GQUAD]
Details: for IC50: curve of first compound; for viability, T/C: stronger effect = lower value; active = viability on the fitted dose curve at most 10% of control; inactive = the rest
Text: DNA G-quadruplex Stabilizer Agents in Combinations in Complex Spheroids
A high-throughput screen of multi-cell type tumor spheroids was designed to identify active combinations of DNA G-quadruplex stabilizer agents and targeted small molecules. Complex spheroids include a stromal component modeled by human endothelial cells (HUVEC) and fibroblasts modeled by human mesenchymal stem cells (MSCs). The concentration ranges selected for each drug and investigational agent were based upon clinically achievable concentrations if the clinical Cmax of the agent was known.
Compounds. The drugs and investigational agents: pidnarulex (CX-5461; NSC782164), APTO-253 (NSC789042), BRACO-19 (NSC847499), peposertib (NSC802822), ceralasertib (NSC780249), elimusertib (NSC800525), camonsertib (NSC841442), AZD-1390 (NSC803789), olaparib (NSC753686), talazoparib (NSC767125), ART-558 (NSC835418), sotorasib (NSC818433), MRTX-1133 (NSC836407), SN-38 (NSC673596), topotecan (NSC609699), etoposide (NSC141540), doxorubicin (NSC123127), gemcitabine (NSC613327), 5-fluorouracil (NSC19893), paclitaxel (NSC125973), vemurafenib (NSC761431), panobinostat (NSC761190), R-306465 (JNJ-16241199; NSC773264), adavosertib (NSC754352), TP-3654 (NSC805149), carboplatin (NSC241240), KSQ-4279 (NSC840948), and staurosporine (NSC755774) were obtained from the National Cancer Institute (NCI) Developmental Therapeutics Program Chemical Repository (34). The FDA-approved anticancer drug set is available from the NCI Developmental Therapeutics Program. […] The stock solutions were prepared in dimethyl sulfoxide (DMSO, Sigma-Aldrich, St. Louis, MO, cat. D2650) at 800-fold the tested concentration and stored at -70 degrees C prior to their use. All drugs and investigational agents were tested over a range starting from a high concentration at or near the clinical Cmax and decreasing in half-log increments. If the clinical Cmax for an agent had not been determined, the highest concentration tested was 10 microM.
2.3 Cell Culture. All cells were maintained in an incubator at 37 degrees C and 5% CO2 with 95% humidity. The PDC lines were cultured according to standard operating procedures established by the NCI PDMR. All PDCs were thawed and cultured in Matrigel-coated flasks prepared with a working solution of 1X Ham's F-12 nutrient mix, without supplementation (Invitrogen, cat. 11765054), 100 U/mL penicillin-streptomycin (Invitrogen, cat. 15140122), and 2.5% Matrigel (Corning Inc., cat. 354248) for the first three passages. The 857933-349-R-J2-PDC line was cultured in 6C/Colon 1B media, which includes advanced DMEM/F-12 (Thermo Fisher Scientific, cat. 12634028), 10 mM HEPES (Thermo Fisher Scientific, cat. 15630080), 1X GlutaMAX supplement (Thermo Fisher Scientific, cat. 35050061), 0.1 mg/mL primocin (InvivoGen, cat. ant-pm-2), 10% defined fetal bovine serum, heat inactivated (HyClone Laboratories Inc., cat. SH30070.03HI), 50% L-WRN conditioned media (ATCC, cat. CRL-3276), 1.25 mM N-Acetyl-L-cysteine (Sigma-Aldrich, cat. A9165), 10 mM nicotinamide (Sigma-Aldrich, cat. N0636), 1X B-27 supplement (Thermo Fisher Scientific, cat. 17504044), 1X N-2 supplement (Thermo Fisher Scientific, cat. 17502048), 10 microM Y-27632 dihydrochloride (Tocris Bioscience, cat. 1254), and 50 ng/mL human EGF recombinant protein (Thermo Fisher Scientific, cat. PHG0311). The 485176-168-R4-J1-PDC line was cultured in Panc media, which includes all 6C/Colon 1B media components plus 100 ng/mL human FGF-10 (Thermo Fisher Scientific, cat. 100-26), 500 nM SB-431542 (Selleckchem, cat. S1067), and gastrin (Tocris, cat. 3006).
[…]

[1] = second compound 0.0316 µM, first compound 0.0316 µM
[2] = second compound 0.0316 µM, first compound 0.1 µM
[3] = second compound 0.0316 µM, first compound 0.316 µM
[4] = second compound 0.0316 µM, first compound 1 µM
[5] = second compound 0.0316 µM, first compound 3.16 µM
[6] = second compound 0.0316 µM, first compound 10 µM
[7] = second compound 0.1 µM, first compound 0.0316 µM
[8] = second compound 0.1 µM, first compound 0.1 µM
[9] = second compound 0.1 µM, first compound 0.316 µM
[10] = second compound 0.1 µM, first compound 1 µM
[11] = second compound 0.1 µM, first compound 3.16 µM
[12] = second compound 0.1 µM, first compound 10 µM
[13] = second compound 0.316 µM, first compound 0.0316 µM
[14] = second compound 0.316 µM, first compound 0.1 µM
[15] = second compound 0.316 µM, first compound 0.316 µM
[16] = second compound 0.316 µM, first compound 1 µM
[17] = second compound 0.316 µM, first compound 3.16 µM
[18] = second compound 0.316 µM, first compound 10 µM
[19] = second compound 1 µM, first compound 0.0316 µM
[20] = second compound 1 µM, first compound 0.1 µM
[21] = second compound 1 µM, first compound 0.316 µM
[22] = second compound 1 µM, first compound 1 µM
[23] = second compound 1 µM, first compound 3.16 µM
[24] = second compound 1 µM, first compound 10 µM
[25] = second compound 3.16 µM, first compound 0.0316 µM
[26] = second compound 3.16 µM, first compound 0.1 µM
[27] = second compound 3.16 µM, first compound 0.316 µM
[28] = second compound 3.16 µM, first compound 1 µM
[29] = second compound 3.16 µM, first compound 3.16 µM
[30] = second compound 3.16 µM, first compound 10 µM
[31] = second compound 10 µM, first compound 0.0316 µM
[32] = second compound 10 µM, first compound 0.1 µM
[33] = second compound 10 µM, first compound 0.316 µM
[34] = second compound 10 µM, first compound 1 µM
[35] = second compound 10 µM, first compound 3.16 µM
[36] = second compound 10 µM, first compound 10 µM
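Note: spheroids exposed to compounds for 7 days before readout.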

Cc1cccc(N(C)C(=O)C2C(O)CCN2c2nc(C)cc(C(F)(F)F)c2C#N)c1 (centres undefined) + Cc1[nH]c2ccc(F)cc2c1-c1nc2c3cccnc3c3ncccc3c2[nH]1
< 31.6 nM: IC50 (second compound 3.16 µM) | IC50 (second compound 10 µM)
inactive: viability, T/C [1] 112% | viability, T/C [2] 104% | viability, T/C [3] 95.3% | viability, T/C [4] 95.5% | viability, T/C [5] 94.5% | viability, T/C [6] 92.9% | viability, T/C [7] 97.6% | viability, T/C [8] 97% | viability, T/C [9] 92.1% | viability, T/C [10] 93.4% | viability, T/C [11] 103% | viability, T/C [12] 101% | viability, T/C [13] 95.3% | viability, T/C [14] 88.5% | viability, T/C [15] 101% | viability, T/C [16] 95.8% | viability, T/C [17] 95.8% | viability, T/C [18] 91.2% | viability, T/C [19] 78.8% | viability, T/C [20] 85.4% | viability, T/C [21] 83.3% | viability, T/C [22] 71% | viability, T/C [23] 90.4% | viability, T/C [24] 87.2% | viability, T/C [25] 35.1% | viability, T/C [26] 36.6% | viability, T/C [27] 37.3% | viability, T/C [28] 31.1% | viability, T/C [29] 33.5% | viability, T/C [30] 46% | viability, T/C [31] 32.4% | viability, T/C [32] 34.5% | viability, T/C [33] 35.7% | viability, T/C [34] 30.5% | viability, T/C [35] 25.7% | viability, T/C [36] 38.8%
> 10000 nM: IC50 (second compound 0.0316 µM) | IC50 (second compound 0.1 µM) | IC50 (second compound 0.316 µM) | IC50 (second compound 1 µM)

Nc1ccn(C2OC(CO)C(O)C2(F)F)c(=O)n1 (centres undefined) + Cc1[nH]c2ccc(F)cc2c1-c1nc2c3cccnc3c3ncccc3c2[nH]1
931 nM: IC50 (second compound 0.0316 µM)
inactive: viability, T/C [1] 88% | viability, T/C [2] 67.5% | viability, T/C [3] 65% | viability, T/C [4] 46.3% | viability, T/C [5] 41.6% | viability, T/C [6] 34% | viability, T/C [7] 90.2% | viability, T/C [8] 74% | viability, T/C [9] 69.2% | viability, T/C [10] 47.6% | viability, T/C [11] 41.3% | viability, T/C [12] 32.1% | viability, T/C [13] 75.5% | viability, T/C [14] 84.7% | viability, T/C [15] 59.4% | viability, T/C [16] 49.7% | viability, T/C [17] 39.8% | viability, T/C [18] 35.5% | viability, T/C [19] 73.5% | viability, T/C [20] 68% | viability, T/C [21] 52.6% | viability, T/C [22] 40.7% | viability, T/C [23] 39.4% | viability, T/C [24] 29.3% | viability, T/C [25] 36.6% | viability, T/C [26] 31.7% | viability, T/C [27] 30.7% | viability, T/C [28] 13.8% | viability, T/C [29] 13.6% | viability, T/C [30] 12.9% | viability, T/C [31] 30% | viability, T/C [32] 26.9% | viability, T/C [33] 16.2% | viability, T/C [34] 10.3%
809 nM: IC50 (second compound 0.316 µM)
1140 nM: IC50 (second compound 0.1 µM)
active: viability, T/C [35] 8.66% | viability, T/C [36] 7.59%
< 31.6 nM: IC50 (second compound 3.16 µM) | IC50 (second compound 10 µM)
466 nM: IC50 (second compound 1 µM)
